Measured values published in ChEMBL document CHEMBL1140005, “Phenylpropanoic acid derivatives bearing a benzothiazole ring as PPARdelta-selective agonists” (Bioorg Med Chem Lett, 2007).
pEC50: −log10 of the molar value.

Experiments:
[1] = molecular target: T1, Peroxisome proliferator-activated receptor delta (Homo sapiens, UniProt Q03181)
T1 sequence (Q03181 whole entry): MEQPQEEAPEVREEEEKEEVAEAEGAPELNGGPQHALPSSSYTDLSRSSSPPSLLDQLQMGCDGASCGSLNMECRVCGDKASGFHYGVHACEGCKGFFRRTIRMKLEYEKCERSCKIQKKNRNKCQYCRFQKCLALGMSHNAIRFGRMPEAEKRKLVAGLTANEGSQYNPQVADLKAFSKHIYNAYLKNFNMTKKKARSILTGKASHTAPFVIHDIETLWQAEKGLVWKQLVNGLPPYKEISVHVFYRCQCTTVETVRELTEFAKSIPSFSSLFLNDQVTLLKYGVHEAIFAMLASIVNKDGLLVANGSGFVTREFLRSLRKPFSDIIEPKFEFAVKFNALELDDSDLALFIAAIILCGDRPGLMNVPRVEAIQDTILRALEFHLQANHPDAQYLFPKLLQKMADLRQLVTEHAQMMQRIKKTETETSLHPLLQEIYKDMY

[2] = molecular target: T2, Peroxisome proliferator-activated receptor gamma (Homo sapiens, UniProt P37231); assay: Agonist activity at human PPARgamma receptor expressed in HEK293 cells by GAL4 transactivation assay; type: functional, cell-based
T2 sequence (P37231 whole entry): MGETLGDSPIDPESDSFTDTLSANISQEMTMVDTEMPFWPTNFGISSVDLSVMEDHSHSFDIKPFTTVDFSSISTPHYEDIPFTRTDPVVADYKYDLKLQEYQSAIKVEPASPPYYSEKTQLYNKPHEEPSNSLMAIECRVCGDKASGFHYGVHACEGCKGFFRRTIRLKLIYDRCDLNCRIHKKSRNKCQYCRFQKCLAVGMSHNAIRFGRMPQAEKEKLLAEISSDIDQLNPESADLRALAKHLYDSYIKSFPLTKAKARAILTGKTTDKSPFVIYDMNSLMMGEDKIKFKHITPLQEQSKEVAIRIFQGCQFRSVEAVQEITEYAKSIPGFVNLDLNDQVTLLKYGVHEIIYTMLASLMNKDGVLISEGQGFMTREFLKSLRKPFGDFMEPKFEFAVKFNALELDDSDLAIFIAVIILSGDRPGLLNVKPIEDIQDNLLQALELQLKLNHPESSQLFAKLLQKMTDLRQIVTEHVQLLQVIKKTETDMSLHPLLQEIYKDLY

[3] = molecular target: T3, Peroxisome proliferator-activated receptor alpha (Homo sapiens, UniProt Q07869); assay: Agonist activity at human PPARalpha receptor expressed in HEK293 cells by GAL4 transactivation assay; type: functional, cell-based
T3 sequence (Q07869 whole entry): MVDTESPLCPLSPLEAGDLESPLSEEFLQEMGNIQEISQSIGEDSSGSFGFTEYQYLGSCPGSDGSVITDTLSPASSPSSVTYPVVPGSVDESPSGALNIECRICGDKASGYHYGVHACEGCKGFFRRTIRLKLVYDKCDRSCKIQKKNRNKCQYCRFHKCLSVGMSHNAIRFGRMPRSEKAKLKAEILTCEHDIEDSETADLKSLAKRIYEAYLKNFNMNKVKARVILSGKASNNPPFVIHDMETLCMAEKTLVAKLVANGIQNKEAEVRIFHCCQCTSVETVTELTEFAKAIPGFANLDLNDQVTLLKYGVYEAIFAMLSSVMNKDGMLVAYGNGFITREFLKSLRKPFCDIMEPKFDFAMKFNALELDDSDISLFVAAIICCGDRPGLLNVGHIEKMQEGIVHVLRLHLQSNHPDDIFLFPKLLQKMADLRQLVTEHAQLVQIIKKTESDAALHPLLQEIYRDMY

SMILES | pEC50 [1] | pEC50 [2] | pEC50 [3]
O=C(O)CCc1ccc(OCCN(Cc2ccccc2)c2nc3ccccc3s2)cc1 | 5.55 | – | –
CC(C)(C)c1ccc(CN(CCOc2ccc(CCC(=O)O)cc2)c2nc3ccccc3s2)cc1 | 5.31 | 5.20 | –
O=C(O)CCc1ccc(OCCN(Cc2ccc(C(F)(F)F)cc2)c2nc3ccccc3s2)cc1 | 6.03 | 5.43 | 5.35
O=C(O)CCc1ccc(OCCN(Cc2cccs2)c2nc3ccccc3s2)cc1 | 5.76 | – | –
Cc1ccc2nc(N(CCOc3ccc(CCC(=O)O)cc3)Cc3ccccc3)sc2c1 | 5.58 | – | –
O=C(O)CCc1ccc(OCCCN(Cc2ccccc2)c2nc3ccccc3s2)cc1 | 5.59 | – | –
Cc1cc(OCCN(Cc2ccccc2)c2nc3ccccc3s2)ccc1CCC(=O)O | 5.93 | – | –
Cc1cc(CCC(=O)O)ccc1OCCCN(Cc1cccs1)c1nc2ccc(Cl)cc2s1 | 6.41 | – | –
O=C(O)CCc1ccc(OCCN(Cc2ccccc2)c2nc3ccc(Cl)cc3s2)cc1 | 5.87 | – | –
CCc1cc(OCCN(Cc2ccccc2)c2nc3ccccc3s2)ccc1CCC(=O)O | 5.53 | – | –
